# Experimental data: US7101878B1 (Agouron Pharmaceuticals, Inc., priority 1998, dated 2006)
# Target: T1, mouse GnRH receptor (Mus musculus, UniProt Q01776)
# T1 construct: expressed in transfected cells; host or cells: 293 cells
# T1 sequence (Q01776 1-327): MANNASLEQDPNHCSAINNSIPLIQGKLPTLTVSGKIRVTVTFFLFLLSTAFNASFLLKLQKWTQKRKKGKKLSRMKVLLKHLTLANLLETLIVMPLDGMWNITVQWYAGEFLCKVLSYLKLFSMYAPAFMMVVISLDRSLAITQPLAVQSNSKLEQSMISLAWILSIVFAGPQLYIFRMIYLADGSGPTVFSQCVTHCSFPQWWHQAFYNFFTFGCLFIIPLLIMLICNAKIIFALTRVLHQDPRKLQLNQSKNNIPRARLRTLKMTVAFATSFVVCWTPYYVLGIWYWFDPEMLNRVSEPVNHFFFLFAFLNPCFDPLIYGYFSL
# Assay: Radioligand binding, 125I-GnRH-A, 293 cells expressing mouse GnRH receptors
# Conditions: 10 uM; read-out: % Inhib. @ 10 uM mGnRH
# In short: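 Bound label captured on 0.1% polyethyleneimine-treated GF/C filters, washed three times with PBS, counted. IC50 derived; identical set-up for every species.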
row,Structure (SMILES),inhibition at 10 µM
1,Cc1cc2c(cc1Cc1ccc(C(=O)N3CCN(CCOCCO)CC3)o1)C(C)(C)CCC2(C)C [drawing 1252],63%
2,COc1cc2c(cc1OC)CN(C(=O)c1ccc(Cc3cc4c(cc3C)C(C)(C)CCC4(C)C)o1)CC2 [drawing 1253],46%
3,Cc1cc2c(cc1Cc1ccc(C(=O)N(CCCN(C)C)CCCN(C)C)o1)C(C)(C)CCC2(C)C [drawing 1254],71%
4,Cc1cc2c(cc1Cc1ccc(C(=O)N(CCN(C)C)Cc3ccccc3)o1)C(C)(C)CCC2(C)C [drawing 1255],104%
5,Cc1cc2c(cc1Cc1ccc(C(=O)N3CCN(C(=O)c4ccco4)CC3)o1)C(C)(C)CCC2(C)C [drawing 1264],89%
6,Cc1cc2c(cc1Cc1ccc(C(=O)N3CCN(C4CCCCC4)CC3)o1)C(C)(C)CCC2(C)C [drawing 1265],102%
7,COCCCNC(=O)c1ccc(Cc2cc3c(cc2C)C(C)(C)CCC3(C)C)o1 [drawing 1268],101%
8,Cc1cc2c(cc1Cc1ccc(C(=O)NCC(F)(F)F)o1)C(C)(C)CCC2(C)C [drawing 1271],26%
9,CCCNC(=O)c1ccc(Cc2cc3c(cc2C)C(C)(C)CCC3(C)C)o1 [drawing 1274],93%
10,CCCCN(C(=O)c1ccc(Cc2cc3c(cc2C)C(C)(C)CCC3(C)C)o1)C(C)c1ccccc1 (stereo not shown) [drawing 1275],65%
11,Cc1ccc(N2CCN(C(=O)c3ccc(Cc4cc5c(cc4C)C(C)(C)CCC5(C)C)o3)CC2C)cc1 (stereo not shown) [drawing 1276],73%
12,Cc1cc2c(cc1Cc1ccc(C(=O)N(Cc3cccnc3)Cc3cccn3C)o1)C(C)(C)CCC2(C)C [drawing 1285],100%
13,Cc1cc2c(cc1Cc1ccc(C(=O)N(Cc3cccnc3)Cc3ccccc3F)o1)C(C)(C)CCC2(C)C [drawing 1287],95%
14,CCOC(CN(CCc1ccccc1)C(=O)c1ccc(Cc2cc3c(cc2C)C(C)(C)CCC3(C)C)o1)OCC [drawing 1296],66%
15,CCCN(CCc1ccccn1)C(=O)c1ccc(Cc2cc3c(cc2C)C(C)(C)CCC3(C)C)o1 [drawing 1297],100%
16,COC(=O)C1CCCN1C(=O)c1ccc(Cc2cc3c(cc2C)C(C)(C)CCC3(C)C)o1 (stereo not shown) [drawing 1298],97%
17,Cc1cc2c(cc1Cc1ccc(C(=O)NCC3CCCCC3)o1)C(C)(C)CCC2(C)C [drawing 1302],72%
18,COc1cccc(CN(Cc2cccc(Oc3cccc(C(F)(F)F)c3)c2)C(=O)c2ccc(Cc3cc4c(cc3C)C(C)(C)CCC4(C)C)o2)c1OC [drawing 1307],75%
19,Cc1cc2c(cc1Cc1ccc(C(=O)N3CCC(CNC(=O)C(F)(F)F)CC3)o1)C(C)(C)CCC2(C)C [drawing 1308],41%
20,Cc1cc2c(cc1Cc1ccc(C(=O)N(CCC#N)Cc3ccco3)o1)C(C)(C)CCC2(C)C [drawing 1309],77%
21,Cc1cc2c(cc1Cc1ccc(C(=O)N(Cc3cccnc3)CC3CC=CCC3)o1)C(C)(C)CCC2(C)C (stereo not shown) [drawing 1318],94%
22,Cc1cc2c(cc1Cc1ccc(C(=O)NC(CO)CC(C)C)o1)C(C)(C)CCC2(C)C (stereo not shown) [drawing 1320],98%
23,Cc1cc2c(cc1Cc1ccc(C(=O)NCCc3ccc(Br)cc3)o1)C(C)(C)CCC2(C)C [drawing 1371],47%
24,Cc1cc2c(cc1Cc1ccc(C(=O)NCc3ccccc3-c3ccccc3)o1)C(C)(C)CCC2(C)C [drawing 1372],74%
25,Cc1cc2c(cc1Cc1ccc(C(=O)NC3CCc4ccccc43)o1)C(C)(C)CCC2(C)C (stereo not shown) [drawing 1375],57%
26,COC(CCCNC(=O)c1ccc(Cc2cc3c(cc2C)C(C)(C)CCC3(C)C)o1)OC [drawing 1383],101%

row,Structure (SMILES),inhibition at 10 µM
1,Cc1cc2c(cc1Cc1ccc(C(=O)NCCCO)o1)C(C)(C)CCC2(C)C [drawing 1417],96%
2,Cc1cc2c(cc1Cc1ccc(C(=O)N(C)C3CCN(C)CC3)o1)C(C)(C)CCC2(C)C [drawing 1420],89%
3,COc1ccccc1N1CCN(C(=O)c2ccc(Cc3cc4c(cc3C)C(C)(C)CCC4(C)C)o2)CC1 [drawing 1421],73%
4,Cc1cc2c(cc1Cc1ccc(C(=O)N3CCc4ccccc4C3)o1)C(C)(C)CCC2(C)C [drawing 1422],70%
5,Cc1cc2c(cc1Cc1ccc(C(=O)N3CCC(O)(c4ccc(Cl)cc4)CC3)o1)C(C)(C)CCC2(C)C [drawing 1423],43%
6,CC(=O)N1CCN(C(=O)c2ccc(Cc3cc4c(cc3C)C(C)(C)CCC4(C)C)o2)CC1 [drawing 1424],71%
7,Cc1cc2c(cc1Cc1ccc(C(=O)N3CCC(Cc4ccccc4)CC3)o1)C(C)(C)CCC2(C)C [drawing 1425],48%
8,Cc1cc2c(cc1Cc1ccc(C(=O)N3CC(C)OC(C)C3)o1)C(C)(C)CCC2(C)C (stereo not shown) [drawing 1426],84%
9,Cc1cc2c(cc1Cc1ccc(C(=O)N3CCC(CCCC4CCN(CCO)CC4)CC3)o1)C(C)(C)CCC2(C)C [drawing 1427],104%
10,CCN(CC)CCN(C)C(=O)c1ccc(Cc2cc3c(cc2C)C(C)(C)CCC3(C)C)o1 [drawing 1428],68%
11,Cc1cc2c(cc1Cc1ccc(C(=O)N3CCN(CCO)CC3)o1)C(C)(C)CCC2(C)C [drawing 1429],69%
12,Cc1cc2c(cc1Cc1ccc(C(=O)N3CC=CCC3)o1)C(C)(C)CCC2(C)C [drawing 1430],69%
13,Cc1cc2c(cc1Cc1ccc(C(=O)N3CCN(CC(=O)N4CCCC4)CC3)o1)C(C)(C)CCC2(C)C [drawing 1432],79%
14,Cc1cc2c(cc1Cc1ccc(C(=O)N3CCCCCCC3)o1)C(C)(C)CCC2(C)C [drawing 1433],88%
15,COc1ccc(C(NC(=O)c2ccc(Cc3cc4c(cc3C)C(C)(C)CCC4(C)C)o2)C2CC2)cc1 (stereo not shown) [drawing 1435],83%
16,Cc1cc2c(cc1Cc1ccc(C(=O)N3CCCCC3C(=O)NC(c3ccccc3)c3ccccc3)o1)C(C)(C)CCC2(C)C (stereo not shown) [drawing 1436],43%
17,Cc1cc2c(cc1Cc1ccc(C(=O)NCCCCCO)o1)C(C)(C)CCC2(C)C [drawing 1437],99%
18,Cc1cc2c(cc1Cc1ccc(C(=O)NCC(C)(C)CO)o1)C(C)(C)CCC2(C)C [drawing 1438],84%
19,C=CCN(CC=C)C(=O)c1ccc(Cc2cc3c(cc2C)C(C)(C)CCC3(C)C)o1 [drawing 1440],83%
20,CC(=O)N(C)C1CCN(C(=O)c2ccc(Cc3cc4c(cc3C)C(C)(C)CCC4(C)C)o2)C1 (stereo not shown) [drawing 1441],74%
21,Cc1cc2c(cc1Cc1ccc(C(=O)NCC(C)O)o1)C(C)(C)CCC2(C)C (stereo not shown) [drawing 1443],90%
22,Cc1cc2c(cc1Cc1ccc(C(=O)NC(C)(CO)CO)o1)C(C)(C)CCC2(C)C [drawing 1444],55%
23,Cc1cc2c(cc1Cc1ccc(C(=O)NCC3(O)CCCCC3)o1)C(C)(C)CCC2(C)C [drawing 1445],65%
24,Cc1cc2c(cc1Cc1ccc(C(=O)N3CC(C)CC(C)C3)o1)C(C)(C)CCC2(C)C (stereo not shown) [drawing 1446],90%
25,Cc1cc2c(cc1Cc1ccc(C(=O)NC(C)CCCC(C)C)o1)C(C)(C)CCC2(C)C (stereo not shown) [drawing 1447],72%
26,Cc1cc2c(cc1Cc1ccc(C(=O)NCCC3=CCCCC3)o1)C(C)(C)CCC2(C)C [drawing 1448],84%
